We go through 18 compounds from US5468767A, “Antidepressant 3-(aminocycloalkenyl)-indole-5-nitrile derivatives” (Bristol-Myers Squibb Company, priority 1994, dated 1995).

The test system of the test is synaptosomal re-uptake of tritiated serotonin. Put plainly: In vitro inhibition of synaptosomal re-uptake of tritiated serotonin (5-HT uptake inhibition). The class given is biochemical. Here is the method: Determination of endogenous monoaminergic re-uptake inhibition values both for serotonin and norepinephrine was accomplished using test methods described by P. Skolnick, et al., Br. J. Pharmacology, (1985), 86, pp. 637-644; with only minor modifications. In vitro IC50 (nM) test values were determined for representative compounds of Formula I based on their inhibition of synaptosomal re-uptake of tritiated serotonin. Test data IC50 values lower than 500 nM are considered to reflect activity as an inhibitor of serotonin re-uptake.
In vitro IC50 (nM) test values below 100 nM are designated with ** and those below 10 nM with ***.
For orientation: IC50 means the concentration that gives 50% inhibition. A high value points to a need for much substance. `CN(C)C1CC=C(c2c[nH]c3ccc(C#N)cc23)CC1` (stereo not drawn) [Example 23] registered an IC50 of less than 10 nM.
For `CCN(CC)C1CC=C(c2c[nH]c3ccc(C#N)cc23)CC1` (stereo not drawn) [Example 24], the IC50 is less than 100 nM.
The result for `CC(C)NC1CC=C(c2c[nH]c3ccc(C#N)cc23)CC1` (stereo not drawn) [Example 26] reads less than 100 nM; that for `N#Cc1ccc2[nH]cc(C3=CCC(NCc4ccccc4)CC3)c2c1` (stereo not drawn) [Example 27], less than 10 nM; that for `N#Cc1ccc2[nH]cc(C3=CCC(NCCc4ccccc4)CC3)c2c1` (stereo not drawn) [Example 28], less than 10 nM.
On to `CN(CCc1ccccc1)C1CC=C(c2c[nH]c3ccc(C#N)cc23)CC1` (stereo not drawn) [Example 29], for which the IC50 is less than 10 nM.
With `N#Cc1ccc2[nH]cc(C3=CCC(NCCc4cccc(F)c4)CC3)c2c1` (stereo not drawn) [Example 30], the IC50 is less than 10 nM.
`N#CCc1ccc2[nH]cc(C3=CCC(NCCc4ccccc4)CC3)c2c1` (stereo not drawn) [Example 31, 3-[[4-(2-Phenylethyl)amino]-1-cyclohexen-1-yl]-1H-indole-5-acetonitrile] displayed an IC50 of less than 100 nM.
The result for `N#Cc1ccc2[nH]cc(C3=CCC(NCCc4ccccc4F)CC3)c2c1` (stereo not drawn) [Example 32] reads less than 10 nM; that for `N#Cc1ccc2[nH]cc(C3=CCC(NCCc4ccc(F)cc4)CC3)c2c1` (stereo not drawn) [Example 33], less than 10 nM.
For `COc1ccccc1CCNC1CC=C(c2c[nH]c3ccc(C#N)cc23)CC1` (stereo not drawn) [Example 34] the value was less than 10 nM; for `COc1cccc(CCNC2CC=C(c3c[nH]c4ccc(C#N)cc34)CC2)c1` (stereo not drawn) [Example 35], less than 10 nM; for `COc1ccc(CCNC2CC=C(c3c[nH]c4ccc(C#N)cc34)CC2)cc1` (stereo not drawn) [Example 36], less than 10 nM.
`N#Cc1ccc2[nH]cc(C3=CCC(NCCc4cccnc4)CC3)c2c1` (stereo not drawn) [Example 37] returned an IC50 of less than 10 nM.
The result for `N#Cc1ccc2[nH]cc(C3=CCC(NCCCc4ccccc4)CC3)c2c1` (stereo not drawn) [Example 38] reads less than 10 nM; that for `N#Cc1ccc2[nH]cc(C3=CCC(NCC4COc5ccccc5O4)CC3)c2c1` (stereo not drawn) [Example 39], less than 10 nM; that for `N#Cc1ccc2[nH]cc(C3=CCC(NCCCCc4ccccc4)CC3)c2c1` (stereo not drawn) [Example 40], less than 10 nM.
The result for `CCNC1CC=C(c2c[nH]c3ccc(C#N)cc23)CC1` (stereo not drawn) [Example 41] reads less than 100 nM.
